Assay results taken from patent publication US20120245137A1 (Zalicus Pharmaceuticals Ltd., priority 2009, published 2012).
Where two headings read alike, the source gives them in different places.

Columns and labels:
Assay type in all cases: cell-based
CAv1.2 = CAv1.2 (Homo sapiens, UniProt Q13936); assay: FLIPR data, CAv1.2 channel blocking (Table 6); conditions: for CAv1.2 IC50 Ratio closed/inact.: ratio closed/inactivated IC50
Human Cav 2.2 channels = Human Cav 2.2 channels (Homo sapiens, UniProt Q00975); assay: Fluorescent assay for CaV2.2 channels using potassium depolarization (VIPR/FLIPR); conditions: FLIPR data
From the text: Human Cav 2.2 channels were stably expressed in HEK293 cells along with alpha2-delta and beta subunits of voltage-gated calcium channels. An inwardly rectifying potassium channel (Kir2.3) was also expressed in these cells to allow more precise control of the cell membrane potential by extracellular potassium concentration. At low bath potassium concentration, the membrane potential is relatively negative, and is depolarized as the bath potassium concentration is raised. In this way, the bath potassium concentration can be used to regulate the voltage-dependent conformations of the channels. […] After the incubation period, Cav2.2 channel opening is triggered by addition of higher concentration of potassium (70 mM final concentration) to further depolarize the cell. The degree of state-dependent block can be estimated from the inhibitory potency of compounds after incubation in different potassium concentrations.
Calcium influx through Cav 2.2 channels is determined using a calcium sensitive fluorescent dye in combination with a fluorescent plate reader. Fluorescent changes were measured with either a VIPR (Aurora Instruments) or FLIPR (Molecular Devices) plate reader.
1. Seed cells in Poly-D-Lysine Coated 96 or 384-well plate and keep in a 3rC-IO % C02 incubator overnight.
2. Remove media, wash cells with 0.2 mL (96-well plate) or 0.05 mL (384-well plate) Dulbecco's Phosphate Buffered Saline (D-PBS) with calcium & magnesium (Invitrogen; 14040).
3. Add 0.1 mL (96-well plate) or 0.05 mL (384-well plate) of 4˜M fluor-4 (Molecular Probes; F-14202) and 0.02% Pluronic acid (Molecular Probes; P-3(00) prepared in D-PBS with calcium & magnesium (Invitrogen; 14040) supplemented with 10 mM Glucose & 10 mM HepeslNaOH; pH 7.4.
4. Incubate in the dark at 25° C. for 60-70 min.
5. Remove dye, wash cells with 0.1 mL (96-well plate) or 0.06 mL (384-well plate) of 4, 12, 25, or 30 mM Potassium Pre-polarization Buffer (PPB).
6. Add 0.1 mL (96-well plate) or 0.03 mL (384-well plate) of 4, 12, 25, 30 mM PPB with or without test compound.
7. Incubate in the dark at 25° C. for 30 min
8. Read cell plate on VIPR instrument, Excitation=480 nm, Emission=535 nm.
9. With VIPR continuously reading, add 0.1 mL (96-well plate) or 0.03 mL (384-well plate) of Depolarization Buffer (DB), which is 2× the final assay concentration, to the cell plate.

T-type calcium channel [1] = molecular target: T-type calcium channel (Homo sapiens, UniProt O43497); assay: T-type channel blocking, FLIPR data (Table 6); conditions: CAv3.1
From the text: (§1) Another method, high-throughput spectrophotometric assay, utilizes loading of the cell lines with a fluorescent dye sensitive to intracellular calcium concentration and subsequent examination of the effects of compounds on the ability of depolarization by potassium chloride or other means to alter intracellular calcium levels.

T-type calcium channel [2] = molecular target: T-type calcium channel (Homo sapiens, UniProt O95180); assay: T-type channel blocking, FLIPR data (Table 6)
From the text: as §1

[3] = closed state, read-out: CAv1.2 IC50 Closed
[4] = inactivated state, read-out: CAv1.2 IC50 Inact.
[5] = closed state, read-out: CAv2.2 IC50 Closed
[6] = inactivated state, read-out: CAv2.2 IC50 Inact.
[7] = CAv3.2, closed state, read-out: CAv3.2 IC50 Closed
[8] = CAv3.2, inactivated state, read-out: CAv3.2 IC50 Inact.
[9] = CAv3.2, ratio closed/inactivated IC50

T-type calcium channel (Homo sapiens, UniProt O95180), sequence (O95180 whole entry): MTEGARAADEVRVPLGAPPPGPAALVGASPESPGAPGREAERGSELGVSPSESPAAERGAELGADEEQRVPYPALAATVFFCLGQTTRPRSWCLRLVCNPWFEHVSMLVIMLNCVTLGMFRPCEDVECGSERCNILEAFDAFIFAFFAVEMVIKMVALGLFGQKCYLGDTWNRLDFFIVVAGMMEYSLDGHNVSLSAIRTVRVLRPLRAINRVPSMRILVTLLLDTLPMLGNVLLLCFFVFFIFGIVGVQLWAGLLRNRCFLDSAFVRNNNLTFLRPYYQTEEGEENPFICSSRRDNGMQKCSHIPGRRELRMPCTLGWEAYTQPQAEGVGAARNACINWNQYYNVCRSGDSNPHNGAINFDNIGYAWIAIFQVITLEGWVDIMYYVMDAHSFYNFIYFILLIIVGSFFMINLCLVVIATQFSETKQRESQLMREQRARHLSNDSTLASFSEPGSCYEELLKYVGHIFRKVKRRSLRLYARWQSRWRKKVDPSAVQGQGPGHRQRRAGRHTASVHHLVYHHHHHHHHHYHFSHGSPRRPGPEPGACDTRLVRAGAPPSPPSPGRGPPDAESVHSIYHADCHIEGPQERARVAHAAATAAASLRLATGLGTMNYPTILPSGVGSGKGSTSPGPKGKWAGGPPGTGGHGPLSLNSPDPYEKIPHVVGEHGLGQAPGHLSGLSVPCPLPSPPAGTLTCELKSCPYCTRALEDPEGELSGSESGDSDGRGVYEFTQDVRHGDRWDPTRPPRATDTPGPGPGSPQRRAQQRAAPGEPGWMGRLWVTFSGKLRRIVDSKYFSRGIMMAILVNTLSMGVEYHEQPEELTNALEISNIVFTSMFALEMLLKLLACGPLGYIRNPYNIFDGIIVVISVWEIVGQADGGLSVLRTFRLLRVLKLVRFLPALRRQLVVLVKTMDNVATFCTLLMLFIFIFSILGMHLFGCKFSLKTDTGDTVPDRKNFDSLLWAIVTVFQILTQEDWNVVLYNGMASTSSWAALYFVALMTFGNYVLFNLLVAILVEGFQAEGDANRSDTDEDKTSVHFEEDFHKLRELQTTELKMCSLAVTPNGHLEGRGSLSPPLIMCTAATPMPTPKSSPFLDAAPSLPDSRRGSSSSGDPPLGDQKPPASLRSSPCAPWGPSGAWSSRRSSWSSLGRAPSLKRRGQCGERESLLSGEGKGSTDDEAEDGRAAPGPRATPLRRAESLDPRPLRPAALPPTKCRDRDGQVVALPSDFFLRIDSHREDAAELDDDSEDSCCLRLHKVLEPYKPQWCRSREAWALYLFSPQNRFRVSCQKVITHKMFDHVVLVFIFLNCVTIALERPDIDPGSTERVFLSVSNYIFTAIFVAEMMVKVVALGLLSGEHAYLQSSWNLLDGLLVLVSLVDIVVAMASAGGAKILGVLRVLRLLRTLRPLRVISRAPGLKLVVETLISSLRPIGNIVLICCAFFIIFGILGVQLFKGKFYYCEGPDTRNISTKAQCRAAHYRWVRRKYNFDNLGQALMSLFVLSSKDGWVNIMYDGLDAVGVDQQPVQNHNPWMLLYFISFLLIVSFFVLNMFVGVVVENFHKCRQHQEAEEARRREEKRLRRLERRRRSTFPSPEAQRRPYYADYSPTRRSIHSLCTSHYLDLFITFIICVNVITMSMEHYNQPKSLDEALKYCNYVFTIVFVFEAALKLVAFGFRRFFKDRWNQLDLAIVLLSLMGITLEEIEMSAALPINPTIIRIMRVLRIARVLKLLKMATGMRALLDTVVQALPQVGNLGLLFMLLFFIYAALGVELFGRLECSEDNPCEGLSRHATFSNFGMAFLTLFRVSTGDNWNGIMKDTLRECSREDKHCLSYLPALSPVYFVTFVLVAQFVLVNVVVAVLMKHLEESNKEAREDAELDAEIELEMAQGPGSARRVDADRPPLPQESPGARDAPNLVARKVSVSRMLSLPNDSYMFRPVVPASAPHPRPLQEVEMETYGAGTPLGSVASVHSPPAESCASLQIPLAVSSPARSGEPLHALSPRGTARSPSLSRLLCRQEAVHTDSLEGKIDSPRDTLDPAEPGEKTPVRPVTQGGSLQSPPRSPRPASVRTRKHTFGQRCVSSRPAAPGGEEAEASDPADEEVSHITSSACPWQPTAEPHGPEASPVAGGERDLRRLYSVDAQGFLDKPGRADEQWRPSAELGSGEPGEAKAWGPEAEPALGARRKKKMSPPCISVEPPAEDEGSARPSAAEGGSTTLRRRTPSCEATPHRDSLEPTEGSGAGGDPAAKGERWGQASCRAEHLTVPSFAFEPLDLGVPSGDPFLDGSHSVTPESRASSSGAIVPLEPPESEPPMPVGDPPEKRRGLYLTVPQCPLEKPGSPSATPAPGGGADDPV
T-type calcium channel (Homo sapiens, UniProt O43497), sequence (O43497 whole entry): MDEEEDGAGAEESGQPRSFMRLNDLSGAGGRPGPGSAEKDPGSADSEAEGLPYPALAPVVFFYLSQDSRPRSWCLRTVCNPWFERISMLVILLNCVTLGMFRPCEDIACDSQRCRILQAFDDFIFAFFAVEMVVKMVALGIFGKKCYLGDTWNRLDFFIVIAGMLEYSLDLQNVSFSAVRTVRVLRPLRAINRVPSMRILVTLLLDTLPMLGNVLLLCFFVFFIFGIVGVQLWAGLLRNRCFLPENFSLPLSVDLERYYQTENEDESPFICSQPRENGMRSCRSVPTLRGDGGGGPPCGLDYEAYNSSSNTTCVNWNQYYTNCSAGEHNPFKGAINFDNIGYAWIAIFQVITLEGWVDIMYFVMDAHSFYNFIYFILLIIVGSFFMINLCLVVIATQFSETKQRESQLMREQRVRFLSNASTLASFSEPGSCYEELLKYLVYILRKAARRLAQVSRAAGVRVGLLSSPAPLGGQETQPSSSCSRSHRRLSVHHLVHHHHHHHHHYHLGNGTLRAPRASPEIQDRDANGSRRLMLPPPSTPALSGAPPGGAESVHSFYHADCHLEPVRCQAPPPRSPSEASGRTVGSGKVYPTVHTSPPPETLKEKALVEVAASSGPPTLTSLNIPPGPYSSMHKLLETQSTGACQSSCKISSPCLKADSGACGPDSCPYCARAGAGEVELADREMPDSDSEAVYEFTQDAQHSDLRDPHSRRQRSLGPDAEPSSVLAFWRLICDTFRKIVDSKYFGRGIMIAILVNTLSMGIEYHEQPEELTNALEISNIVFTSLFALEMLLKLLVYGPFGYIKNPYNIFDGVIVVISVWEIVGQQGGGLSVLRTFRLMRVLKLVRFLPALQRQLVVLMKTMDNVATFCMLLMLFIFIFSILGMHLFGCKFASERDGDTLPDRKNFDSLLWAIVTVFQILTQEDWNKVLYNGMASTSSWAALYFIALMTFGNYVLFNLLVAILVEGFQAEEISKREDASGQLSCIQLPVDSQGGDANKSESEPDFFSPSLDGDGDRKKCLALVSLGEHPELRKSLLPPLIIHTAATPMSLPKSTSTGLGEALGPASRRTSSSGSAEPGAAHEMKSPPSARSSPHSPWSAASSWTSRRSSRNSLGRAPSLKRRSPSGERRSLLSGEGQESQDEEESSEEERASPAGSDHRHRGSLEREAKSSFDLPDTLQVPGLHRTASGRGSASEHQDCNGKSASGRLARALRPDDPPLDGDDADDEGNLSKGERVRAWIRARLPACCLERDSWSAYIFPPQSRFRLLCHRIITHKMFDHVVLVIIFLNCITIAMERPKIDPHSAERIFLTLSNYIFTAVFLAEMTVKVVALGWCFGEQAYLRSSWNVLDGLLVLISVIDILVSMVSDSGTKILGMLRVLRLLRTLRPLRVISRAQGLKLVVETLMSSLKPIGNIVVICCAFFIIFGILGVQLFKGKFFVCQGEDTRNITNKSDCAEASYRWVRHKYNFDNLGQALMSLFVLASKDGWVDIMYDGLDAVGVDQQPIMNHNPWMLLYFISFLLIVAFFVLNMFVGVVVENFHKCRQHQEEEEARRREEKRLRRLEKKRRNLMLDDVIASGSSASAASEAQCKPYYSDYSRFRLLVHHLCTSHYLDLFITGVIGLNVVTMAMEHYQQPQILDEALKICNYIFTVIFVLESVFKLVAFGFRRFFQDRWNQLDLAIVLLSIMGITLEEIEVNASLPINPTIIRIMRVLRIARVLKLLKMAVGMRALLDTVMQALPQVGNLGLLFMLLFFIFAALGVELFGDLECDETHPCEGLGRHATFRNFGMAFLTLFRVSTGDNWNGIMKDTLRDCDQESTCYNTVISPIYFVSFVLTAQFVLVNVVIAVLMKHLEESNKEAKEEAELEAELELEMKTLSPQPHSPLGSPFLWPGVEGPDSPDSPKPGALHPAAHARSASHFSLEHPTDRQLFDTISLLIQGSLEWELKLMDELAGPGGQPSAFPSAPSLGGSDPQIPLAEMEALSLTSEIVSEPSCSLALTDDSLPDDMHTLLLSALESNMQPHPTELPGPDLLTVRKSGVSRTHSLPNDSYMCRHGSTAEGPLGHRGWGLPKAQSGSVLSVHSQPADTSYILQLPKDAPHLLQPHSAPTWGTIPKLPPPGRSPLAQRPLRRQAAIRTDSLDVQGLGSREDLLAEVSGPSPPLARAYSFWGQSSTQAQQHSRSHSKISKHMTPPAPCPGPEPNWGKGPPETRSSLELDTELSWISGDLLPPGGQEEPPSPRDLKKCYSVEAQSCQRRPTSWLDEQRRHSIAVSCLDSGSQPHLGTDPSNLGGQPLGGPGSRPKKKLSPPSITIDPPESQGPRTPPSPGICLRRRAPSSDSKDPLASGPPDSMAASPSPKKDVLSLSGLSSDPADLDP

Row | SMILES | IC50 (Human Cav 2.2 channels; [5]) | IC50 (Human Cav 2.2 channels; [6]) | CAv2.2 IC50 Ratio closed/inact. (Human Cav 2.2 channels; ratio closed/inactivated IC50) | IC50 (T-type calcium channel [1]) | IC50 (T-type calcium channel [2]; [7]) | IC50 (T-type calcium channel [2]; [8]) | CAv3.2 IC50 Ratio closed/inact. (T-type calcium channel [2]; [9]) | CAv3.2 IC50 Ratio closed/inact. (T-type calcium channel [2]; CAv3.2, ratio closed/inact.) | CAv2.2 IC50 Ratio closed/inact. (Human Cav 2.2 channels; ratio closed/inact.) | IC50 (CAv1.2; [3]) | IC50 (CAv1.2; [4]) | CAv1.2 IC50 Ratio closed/inact. (CAv1.2)
1 | CC(C)([C@H]1C[C@H](NS(=O)(=O)c2ccc(Cl)c(F)c2)C1)S(=O)(=O)c1cc(F)cc(C(F)(F)F)c1 [Compound 607] | 2.97 µM | 1.15 µM | 2.6 | 5.43 µM | ≥ 10 µM | 3.73 µM | 2.7 | – | – | 7.78 µM | 2.99 µM | 2.6
2 | CC(C)S(=O)(=O)c1cc(C(F)(F)F)cnc1C(=O)N[C@H]1C[C@H](C(C)(C)S(=O)(=O)c2cccc(OC(F)(F)F)c2)C1 [Compound 638] | 6.79 µM | 0.21 µM | 32.3 | 4.24 µM | 5.49 µM | 6.38 µM | 0.9 | – | – | ≥ 10 µM | 6.11 µM | 1.6
3 | CC(C)([C@H]1C[C@H](NC(=O)c2cc(C(F)(F)F)n[nH]2)C1)S(=O)(=O)c1cc(F)cc(C(F)(F)F)c1 [Compound 594] | 6.08 µM | 0.52 µM | 11.7 | ≥ 10 µM | 9.23 µM | 2.35 µM | – | – | – | – | – | –
4 | CC(C)([C@H]1C[C@@H](NC(=O)c2ncc(C(F)(F)F)cc2S(C)(=O)=O)C1)S(=O)(=O)c1cc(F)cc(C(F)(F)F)c1 [Compound 584] | 10 µM | 1.7 µM | 5.9 | ≥ 10 µM | – | – | – | – | – | ≥ 10 µM | ≥ 10 µM | –
5 | CC(C)([C@H]1C[C@H](NC(=O)c2ncc(C(F)(F)F)cc2S(C)(=O)=O)C1)S(=O)(=O)c1cc(F)cc(C(F)(F)F)c1 [Compound 591] | 10 µM | 1.15 µM | 8.7 | ≥ 10 µM | – | – | – | – | – | – | ≥ 10 µM | –

The next lines start with results.

Row | IC50 (Human Cav 2.2 channels; [5]) | IC50 (Human Cav 2.2 channels; [6]) | CAv2.2 IC50 Ratio closed/inact. (Human Cav 2.2 channels; ratio closed/inactivated IC50) | IC50 (T-type calcium channel [1]) | IC50 (T-type calcium channel [2]; [7]) | IC50 (T-type calcium channel [2]; [8]) | CAv3.2 IC50 Ratio closed/inact. (T-type calcium channel [2]; [9]) | CAv3.2 IC50 Ratio closed/inact. (T-type calcium channel [2]; CAv3.2, ratio closed/inact.) | CAv2.2 IC50 Ratio closed/inact. (Human Cav 2.2 channels; ratio closed/inact.) | SMILES | IC50 (CAv1.2; [3]) | IC50 (CAv1.2; [4]) | CAv1.2 IC50 Ratio closed/inact. (CAv1.2)
6 | 1.77 µM | 0.34 µM | 5.2 | ≥ 10 µM | 7.95 µM | 2.77 µM | 2.9 | – | – | O=C(NC[C@H]1C[C@H](S(=O)(=O)c2cccc(OC(F)(F)F)c2)C1)c1ccc(Cl)cn1 [Compound 693] | ≥ 10 µM | 6.64 µM | 1.5
7 | 7.75 µM | 0.78 µM | 9.9 | 9.81 µM | 7.92 µM | 2.48 µM | 3.2 | – | – | CS(=O)(=O)c1cc(Cl)ccc1C(=O)NC[C@H]1C[C@H](S(=O)(=O)c2cccc(OC(F)(F)F)c2)C1 [Compound 692] | ≥ 10 µM | ≥ 10 µM | –
8 | 0.69 µM | 0.07 µM | 9.9 | 3.51 µM | 4.55 µM | 1.46 µM | 3.1 | – | – | CC(C)(C[C@H]1C[C@@H](NC(=O)c2ccc(C(F)(F)F)cn2)C1)S(=O)(=O)c1cccc(C(F)(F)F)c1 [Compound 735] | 6.37 µM | 3.71 µM | 1.7
9 | 10 µM | 5.16 µM | 1.9 | ≥ 10 µM | – | 10 µM | – | – | – | N[C@H]1CCCCC1C(=O)NC[C@H]1C[C@H](S(=O)(=O)c2cc(F)cc(C(F)(F)F)c2)C1 (some centres unmarked) [Compound 711] | – | – | –
10 | – | ≥ 10 µM | – | ≥ 10 µM | ≥ 10 µM | 10 µM | – | 1 | – | NC1(CC(=O)N2CC(CS(=O)(=O)c3cc(F)cc(C(F)(F)F)c3)C2)CCCCC1 [Compound 749] | – | – | –
11 | – | 7.22 µM | – | ≥ 10 µM | – | 10 µM | – | – | 1.4 | CC(C)([C@H]1C[C@@H](CNc2ccc(Cl)c(F)c2)C1)S(=O)(=O)c1cccc(C(F)(F)F)c1 [Compound 754] | – | – | –
